In patent publication US10385019B2, “Inhibitors of EGFR and methods of use thereof” (Dana-Farber Cancer Institute, Inc., priority 2015, dated 2019):
Where two headings read alike, the source gives them in different places.

Target: EGFR T790M/L858R Ba/F3 cell line (Homo sapiens, UniProt P00533, T790M/L858R, cells depend on it)
Test: Ba/F3 cell proliferation model
Type: cell-based, murine
Settings: for Activity (% inhibition): combined with cetuximab (% cetuximab, 1.0 μM drug concentration with 1.0 μg/mL cetuximab)
Excerpt: The selectivity between wild-type EGFR and EGFR containing one or more mutations as described herein can also be measured using cellular proliferation assays where cell proliferation is dependent on kinase activity. For example, murine Ba/F3 cells transfected with a suitable version of wild-type EGFR (such as VIII; containing a WT EGFR kinase domain), or Ba/F3 cells transfected with L858R/T790M, Del/T790M/L718Q, L858R/T790M/L718Q, L858R/T790M/C797S, Del/T790M/C797S, L858R/T790M/I941R, or Exon 19 deletion/T790M can be used.
Cell lines are plated in media. The compounds of the present disclosure are then serially diluted and transferred to the cells. Cell viability is measured via a luminescent readout. Data is analyzed by non-linear regression curve-fitting. […]
The EGFR mutant L858R, Del E746_A750, L858R/T790M, DelE746_A750/T790M, L858R/T790M/C797S and Del/T790M/C797S Ba/F3 cells have been previously described (Zhou, W., Ercan, D., Chen, L., Yun, C. H., Li, D., Capelletti, M., Cortot, A. B., Chirieac, L., Iacob, R. E., Padera, R., et al. “Novel mutant-selective EGFR kinase inhibitors against EGFR T790M,” Nature 462, (2009), 1070-1074). All cell lines were maintained in RPMI 1640 (Cellgro; Mediatech Inc., Herndon, Calif.) supplemented with 10% FBS 100 units/mL penicillin, 100 units/mL streptomycin, and 2 mM glutamine. L858R cells were maintained in ACL-4 media (Invitrogen, Carlsbad, Calif.) supplemented with 5% FBS, 100 units/mL penicillin, 100 units/mL streptomycin, and 2 mM glutamine. The EGFR I941R mutation was introduced via site directed mutagenesis using the Quick Change Site-Directed Mutagenesis kit (Stratagene; La Jolla, Calif.) according to the manufacturer's instructions. All constructs were confirmed by DNA sequencing. The constructs were shuttled into the retroviral vector JP 1540 using the BD Creator™ System (BD Biosciences). Ba/F3 cells were infected with retrovirus and according to standard protocols, as described previously (Zhou et al, Nature 2009). Stable clones were obtained by selection in puromycin (2 μg/ml).
Growth and inhibition of growth was assessed by MTS assay and was performed according to previously established methods (Zhou et al., Nature 2009). The MTS assay is a colorimetric method for determining the number of viable cells that is based on the bioreduction of MTS by cells to a formazan product that is soluble in cell culture medium and can be detected spectrophotometrically. Ba/F3 cells of different EGFR genotypes were exposed to treatment for 72 hours and the number of cells used per experiment determined empirically and has been previously established (Zhou et al., Nature 2009). All experimental points were set up in six wells and all experiments were repeated at least three times. […] The curves were fitted using a non-linear regression model with a sigmoidal dose response.
Inhibition data of an EGFR T790M/L858R Ba/F3 cell line.

Chain of EGFR T790M/L858R Ba/F3 cell line (P00533 whole entry T790M/L858R): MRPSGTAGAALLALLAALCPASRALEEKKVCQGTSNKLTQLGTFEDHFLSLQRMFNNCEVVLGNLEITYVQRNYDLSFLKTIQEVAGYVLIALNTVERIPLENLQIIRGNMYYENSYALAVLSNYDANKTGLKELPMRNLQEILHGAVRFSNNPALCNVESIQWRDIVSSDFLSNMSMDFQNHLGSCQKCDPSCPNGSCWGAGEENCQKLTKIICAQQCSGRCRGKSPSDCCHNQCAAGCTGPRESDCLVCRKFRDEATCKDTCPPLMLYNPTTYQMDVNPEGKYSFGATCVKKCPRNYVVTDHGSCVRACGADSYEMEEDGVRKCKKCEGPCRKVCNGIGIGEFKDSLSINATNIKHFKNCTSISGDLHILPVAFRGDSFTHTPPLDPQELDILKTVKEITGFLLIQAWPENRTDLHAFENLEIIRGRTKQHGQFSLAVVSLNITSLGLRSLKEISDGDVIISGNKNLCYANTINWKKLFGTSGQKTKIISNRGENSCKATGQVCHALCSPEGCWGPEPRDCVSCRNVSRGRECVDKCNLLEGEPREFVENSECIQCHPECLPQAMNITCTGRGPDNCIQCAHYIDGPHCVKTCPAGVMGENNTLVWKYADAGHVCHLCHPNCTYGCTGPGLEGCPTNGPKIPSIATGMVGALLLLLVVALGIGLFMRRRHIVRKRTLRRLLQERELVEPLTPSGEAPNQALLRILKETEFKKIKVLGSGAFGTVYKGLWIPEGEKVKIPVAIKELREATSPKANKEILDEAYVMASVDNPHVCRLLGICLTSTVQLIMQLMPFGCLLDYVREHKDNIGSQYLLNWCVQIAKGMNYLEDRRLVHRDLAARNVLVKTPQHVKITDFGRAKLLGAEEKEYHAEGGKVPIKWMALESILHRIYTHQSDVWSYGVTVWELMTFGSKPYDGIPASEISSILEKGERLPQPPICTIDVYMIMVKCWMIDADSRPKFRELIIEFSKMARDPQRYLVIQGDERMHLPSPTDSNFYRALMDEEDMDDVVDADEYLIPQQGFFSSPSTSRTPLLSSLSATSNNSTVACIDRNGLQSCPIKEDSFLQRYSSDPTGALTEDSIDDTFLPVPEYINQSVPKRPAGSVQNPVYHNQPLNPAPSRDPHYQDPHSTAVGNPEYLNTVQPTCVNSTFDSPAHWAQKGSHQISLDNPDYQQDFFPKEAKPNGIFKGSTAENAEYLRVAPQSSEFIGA

Row | SMILES | Activity (% inhibition) | GI50 (compound alone, read-out: L858R/T790M IC50) | GI50 (read-out: L858R/T790M Cetuximab IC50, in combination with Cetuximab)
1 | O=C(Nc1ncc(CCCN2CCOCC2)s1)[C@@H](c1ccccc1)N1Cc2ccccc2C1=O [Compound I-44, (R)-N-(5-(3-morpholinopropyl)thiazol-2-yl)-2-(1-oxoisoindolin-2-yl)-2-phenylacetamide] | A (a % inhibition of about 75%) | – | –
2 | COc1ccc(-c2ccc3c(c2)C(=O)N([C@@H](C(=O)Nc2nccs2)c2ccccc2)C3)c(OC)c1 [Compound I-80, (R)-2-(6-(2,4-dimethoxyphenyl)-1-oxoisoindolin-2-yl)-2-phenyl-N-(thiazol-2-yl)acetamide] | C (a % inhibition of between about 25% to about 50%) | – | –
3 | O=C(Nc1nc(C(=O)N2CCOCC2)cs1)[C@@H](c1ccccc1)N1Cc2ccccc2C1=O [Compound I-22, (R)-N-(4-(morpholine-4-carbonyl)thiazol-2-yl)-2-(1-oxoisoindolin-2-yl)-2-phenylacetamide] | A (a % inhibition of about 75%) | – | –
4 | O=C(Nc1ccccn1)[C@@H](c1ccccc1)N1Cc2ccccc2C1=O [Compound I-31, (R)-2-(1-oxoisoindolin-2-yl)-2-phenyl-N-(pyridin-2-yl) acetamide] | A (a % inhibition of about 75%) | – | –
5 | COC(=O)c1ccc(-c2ccc3c(c2)C(=O)N([C@@H](C(=O)Nc2nccs2)c2ccccc2)C3)cc1 [Compound I-72, methyl (R)-4-(3-oxo-2-(2-oxo-1-phenyl-2-(thiazol-2-ylamino)ethyl)isoindolin-5-yl)benzoate] | B (a % inhibition of between about 50% to about 75%) | – | –
6 | CN(C(=O)[C@@H](c1ccccc1)N1Cc2ccccc2C1=O)c1nccs1 [Compound I-58, (R)-N-methyl-2-(1-oxoisoindolin-2-yl)-2-phenyl-N-(thiazol-2-yl)acetamide] | B (a % inhibition of between about 50% to about 75%) | – | –
7 | C[C@H](C(=O)Nc1nccs1)N1Cc2ccc(-c3ccc(N4CCNCC4)cc3)cc2C1=O [Compound I-118, (R)-2-(1-oxo-6-(4-(piperazin-1-yl)phenyl)isoindolin-2-yl)-N-(thiazol-2-yl)propanamide] | A (a % inhibition of about 75%) | – | –
8 | Nc1cccc(-c2ccc3c(c2)C(=O)N([C@@H](C(=O)Nc2nccs2)c2ccccc2)C3)c1 [Compound I-73, (R)-2-(6-(3-aminophenyl)-1-oxoisoindolin-2-yl)-2-phenyl-N-(thiazol-2-yl)acetamide] | C (a % inhibition of between about 25% to about 50%) | – | –
9 | O=C(Nc1nc(C(=O)N2CCC(N3CCOCC3)CC2)cs1)[C@@H](c1ccccc1)N1Cc2ccccc2C1=O [Compound I-24, (R)-N-(4-(4-morpholinopiperidine-1-carbonyl)thiazol-2-yl)-2-(1-oxoisoindolin-2-yl)-2-phenylacetamide] | A (a % inhibition of about 75%) | – | –
10 | O=C(Nc1ccccc1F)[C@@H](c1ccccc1)N1Cc2ccccc2C1=O [Compound I-55, (R)-N-(2-fluorophenyl)-2-(1-oxoisoindolin-2-yl)-2-phenylacetamide] | B (a % inhibition of between about 50% to about 75%) | – | –
11 | O=C(Nc1nccs1)[C@@H](c1ccccc1)N1Cc2cc(-c3ccc4c(c3)OCCO4)ccc2C1=O [Compound I-103, (R)-2-(5-(2,3-dihydrobenzo[b] [1,4]dioxin-6-yl)-1-oxoisoindolin-2-yl)-2-phenyl-N-(thiazol-2-yl)acetamide] | C (a % inhibition of between about 25% to about 50%) | – | –
12 | COC(=O)c1cc(Br)ccc1N[C@H](C(=O)Nc1nccs1)c1ccccc1 [Compound I-107, methyl (S)-5-bromo-2-((2-oxo-1-phenyl-2-(thiazol-2-ylamino)ethyl)amino)benzoate] | B (a % inhibition of between about 50% to about 75%) | – | –
13 | O=C(NCCN1CCOCC1)c1ccc(-c2ccc3c(c2)C(=O)N([C@@H](C(=O)Nc2nccs2)c2ccccc2)C3)cc1 [Compound I-83, (R)-N-(2-morpholinoethyl)-4-(3-oxo-2-(2-oxo-1-phenyl-2-(thiazol-2-ylamino)ethyl)isoindolin-5-yl)benzamide] | D (a % inhibition of between about 0% to about 25%) | – | –
14 | O=C(Nc1nccs1)[C@@H](c1ccccc1)N1Cc2ccc(-c3ccccc3)cc2C1=O [Compound I-59, (R)-2-(1-oxo-6-phenylisoindolin-2-yl)-2-phenyl-N-(thiazol-2-yl)acetamide] | C (a % inhibition of between about 25% to about 50%) | – | –
15 | CN(C)CCCNC(=O)c1csc(NC(=O)[C@@H](c2ccccc2)N2Cc3ccccc3C2=O)n1 [Compound I-11, (R)-N-(3-(dimethylamino)propyl)-2-(2-(1-oxoisoindolin-2-yl)-2-phenylacetamido)thiazole-4-carboxamide] | A (a % inhibition of about 75%) | – | –
16 | O=C(Nc1nccs1)[C@@H](c1cc(F)ccc1O)N1Cc2ccc(-c3ccc(N4CCNCC4)cc3)cc2C1=O [Compound I-126, (R)-2-(5-fluoro-2-hydroxyphenyl)-2-(1-oxo-6-(4-(piperazin-1-yl)phenyl)isoindolin-2-yl)-N-(thiazol-2-yl)acetamide] | D (a % inhibition of between about 0% to about 25%) | 500 to 1000 nM | < 500 nM
17 | O=C(NCC(O)CO)c1cc(N[C@@H](C(=O)Nc2nccs2)c2ccccc2)ccc1[N+](=O)[O-] (stereo partly drawn) [Compound I-110, N-(2,3-dihydroxypropyl)-2-nitro-5-(((R)-2-oxo-1-phenyl-2-(thiazol-2-ylamino)ethyl)amino)benzamide] | A (a % inhibition of about 75%) | – | –
18 | O=C(Nc1nc(C(F)(F)F)cs1)[C@@H](c1ccccc1)N1Cc2ccc(-c3ccc4[nH]ccc4c3)cc2C1=O [Compound I-132, (R)-2-(6-(1H-indol-5-yl)-1-oxoisoindolin-2-yl)-2-phenyl-N-(4-(trifluoromethyl)thiazol-2-yl)acetamide] | A (a % inhibition of about 75%) | – | –
19 | O=C(Nc1nccs1)[C@@H](c1ccccc1)N1Cc2ccc(Nc3cccc(CN4CCCC4)c3)cc2C1=O [Compound I-100, (R)-2-(1-oxo-6-((3-(pyrrolidin-1-ylmethyl)phenyl)amino)isoindolin-2-yl)-2-phenyl-N-(thiazol-2-yl)acetamide] | D (a % inhibition of between about 0% to about 25%) | – | –
20 | O=C(Nc1nccs1)[C@@H](c1ccccc1)N1Cc2ccc(-c3cncnc3)cc2C1=O [Compound I-62, (R)-2-(1-oxo-6-(pyrimidin-5-yl)isoindolin-2-yl)-2-phenyl-N-(thiazol-2-yl)acetamide] | B (a % inhibition of between about 50% to about 75%) | – | –
21 | O=C(Nc1nccs1)[C@@H](c1ccccc1)N1Cc2ccc(-c3ccccn3)cc2C1=O [Compound I-108, (R)-2-(1-oxo-6-(pyridin-2-yl)isoindolin-2-yl)-2-phenyl-N-(thiazol-2-yl)acetamide] | C (a % inhibition of between about 25% to about 50%) | – | –
22 | O=C(Nc1cccnc1)[C@@H](c1ccccc1)N1Cc2ccccc2C1=O [Compound I-7, (R)-2-(1-oxoisoindolin-2-yl)-2-phenyl-N-(pyridin-3-yl) acetamide] | A (a % inhibition of about 75%) | – | –
23 | CN(C)CCNC(=O)c1csc(NC(=O)[C@@H](c2ccccc2)N2Cc3ccccc3C2=O)n1 [Compound I-16, (R)-N-(2-(dimethylamino)ethyl)-2-(2-(1-oxoisoindolin-2-yl)-2-phenylacetamido)thiazole-4-carboxamide] | A (a % inhibition of about 75%) | – | –
24 | O=C(NCCCN1CCOCC1)c1csc(NC(=O)[C@@H](c2ccccc2)N2Cc3ccccc3C2=O)n1 [Compound I-14, (R)-N-(3-morpholinopropyl)-2-(2-(1-oxoisoindolin-2-yl)-2-phenylacetamido)thiazole-4-carboxamide] | A (a % inhibition of about 75%) | – | –
